The values below come from US20120035247A1, “RNA Interference Mediated Inhibition of Signal Transducer and Activator of Transcription 6 (STAT6) Gene Expression Using Short Interfering Nucleic Acid (siNA)” (Merck Sharp & Dohme Corp., priority 2009, published 2012).

Data set [1] relates to STAT6 mRNA. In words: STAT6 siNA screen and dose response in human A549 cells, STAT6 mRNA by quantitative RT-PCR (Taqman). The format is cell-based. The note with it: human A549 cells, 10 nM siNA, 24 hrs, normalized to GAPDH and non-targeting control, mean ± S.D., n = 3. As for the experimental part:
A549 (human; ATCC cat# CCL-185): Cells were cultured at 37° C. in the presence of 5% CO2 and grown in Ham's F12K medium with 2 mM L-glutamine adjusted to contain 1.5 g/L sodium bicarbonate and supplemented with fetal bovine serum at a final concentration of 10%, 100 μg/mL of streptomycin, and 100 U/mL penicillin.
(§1) Cells were plated in all wells of a tissue-culture treated, 96-well plate at a final count of 5000 cells/well in […], of the appropriate culture media. The cells were cultured for 24 hours after plating at 37° C. in the presence of 5% CO2.
(§2) After 24 hours, complexes containing siNA and RNAiMax were created as follows: A solution of RNAiMax diluted 33-fold in OPTI-MEM was prepared. In parallel, solutions of the siNAs for testing were prepared to a final concentration of 120 nM in OPTI-MEM. After incubation of RNAiMax/OPTI-MEM solution at room temperature for 5 min, an equal volume of the siNA solution and the RNAiMax solution were added together for each of the siNAs.
(§3) This solution was incubated at room temperature for 20 minutes. After incubation, 20 uL of the solution was added to each of the relevant wells. The final concentration of siNA in each well was 10 nM and the final volume of RNAiMax in each well was 0.3u1.
(§4) The time of incubation with the RNAiMax-siNA complexes was 24 hours and there was no change in media between transfection and harvesting, unless otherwise indicated.
(§5) RNA was extracted from a 96-well plate using the TaqMan® Gene Expression Cells-to-CT™ Kit (Cat#4399002) with a modified protocol. Briefly, a 60 uL (1 plate) or 110 uL (2 plates) of the Lysis Solution with DNase I was dispensed into each well of the Lysis Buffer Plate (twin.tec full skirt plate). The lysis buffer and stop plates were stored at 4° C. until the cells were washed.
(§6) The plate was spun at 1100 rpm for 5 minutes. The culture medium was aspirated and discarded from the wells of the culture plate. The lysis was performed automatically using a BioMek FX instrument and method. After the Biomek method was completed, the lysis plate was incubated for 2 min. at room temperature. The lysis plate can be stored for 2 hours at 4° C., or at −20° C. or −80° C. for two months.
(§7) Each well of the reverse transcription plate required 10 uL of 2× reverse transcriptase Buffer, luL of 20× reverse transcription enzyme and 2 uL of nuclease-free water. The reverse transcription master mix was prepared by mixing 2× reverse transcription buffer, 20× reverse transcription enzyme mix, and nuclease-free water. 13 uL of the reverse transcription master mix was dispensed into each well of the reverse transcription plate (semi-skirted). A separate reverse transcription plate was prepared for each cell plate. The plate was loaded onto a Biomek NX or Biomek FX Dual-96 and the Biomek method was run. The program is programmed to automatically added 7 uL of lysate from the cell lysis procedure described above into each well of the reverse transcription plate. The plate is sealed and spun on a centrifuge (1000 rpm for 30 seconds) to settle the contents to the bottom of the reverse transcription plate. The plate is placed in a thermocycler at 37° C. for 60 min, 95° C. for 5 min, and 4° C. until the plate is removed from the thermocycler. Upon removal, if not used immediately, the plate was frozen at −20° C.
(§8) A series of probes and primers were used to detect the various mRNA transcripts of the genes of 13-Actin (human cell line only), and of STATE and GAPDH in mouse and human cell lines. All Taqman probes and primers for the experiments here-in described were supplied as pre-validated sets by Applied Biosystems, Inc. (see Table 2).
The assays were performed on an ABI 7900 instrument, according to the manufacturer's instructions. A TaqMan Gene Expression Master Mix (provided in the Cells-to-CTT™, Applied Biosystems, Cat #4399002) was used. The PCR reactions were carried out at 50° C. for 2 min, 95° C. for 20 min followed by 40 cycles at 95° C. for 15 secs and 60° C. for 1 min. […]

Data set [2] concerns STAT6 mRNA. In words: STAT6 siNA screen in mouse NIH 3T3 cells, STAT6 mRNA by quantitative RT-PCR (Taqman). The note with it: mouse NIH3T3 cells, 10 nM siNA, 24 hrs, normalized to GAPDH and non-targeting control, n = 2. Type of data set: cell-based. As for the experimental part: NIH 3T3 (mouse; ATCC cat# CRL-1658): Cells were cultured at 37° C. in the presence of 5% CO2 and grown in Dulbecco's modified Eagle's medium (DMEM) with 4 mM L-glutamine adjusted to contain 1.5 g/L sodium bicarbonate and 4.5 g/L glucose and supplemented with fetal bovine serum at a final concentration of 10%, 100 μg/mL of streptomycin, and 100 U/mL penicillin.
as §1, §2, §3, §4, §5, §6, §7, §8
The assays were performed on an ABI 7900 instrument, according to the manufacturer's instructions. A TaqMan Gene Expression Master Mix (provided in the Cells-to-CTT™, Applied Biosystems, Cat #4399002) was used. […]
On the technique in general: Real-time PCR tracks product formation cycle by cycle.

[invAb] = inverted abasic unit; d = 2'-deoxy (DNA); m = 2'-O-methyl; r = 2'-OH (RNA); f = 2'-fluoro

Take “30001-DC: STAT6 siNA duplex; sense SEQ ID NO: 66, antisense SEQ ID NO: 67; target GAAAGCCUGGUGGACAUUU, site 956 (sense GAAAGCCUGGUGGACAUUUTT; antisense AAAUGUCCACCAGGCUUUCUU; sense: DNA at AGT, 2'-fluoro at CU, [invAb] at 5' end, 3' end, backbone not given here; antisense: sugars from the 5' end rrrfmfffmffmmmfffffmm, backbone not given here) [STAT6 siNA duplex; target GAAAGCCUGGUGGACAUUU, site 956]”: the figures for the “% KD STAT6” value with STAT6 mRNA [1] and in the data set on STAT6 mRNA [2] were 48.2 ± 5% and −5.9 ± 6.6%, respectively.
With “30002-DC: STAT6 siNA duplex; sense SEQ ID NO: 68, antisense SEQ ID NO: 69; target GAUAGAAACUCCUGCUAAU, site 766 (sense GAUAGAAACUCCUGCUAAUTT; antisense AUUAGCAGGAGUUUCUAUCUU; sense: DNA at AGT, 2'-fluoro at CU, [invAb] at 5' end, 3' end, backbone not given here; antisense: sugars from the 5' end rrrmmfmmmmmfffffmffmm, backbone not given here) [STAT6 siNA duplex; target GAUAGAAACUCCUGCUAAU, site 766]”, the figures for the “% KD STAT6” value with STAT6 mRNA [1] and in the data set on STAT6 mRNA [2] were 55.9 ± 9.4% and −22.3 ± 3.5%, respectively.
In the same order, the values of “30003-DC: STAT6 siNA duplex; sense SEQ ID NO: 70, antisense SEQ ID NO: 71; target CGUGGAAAGGGACCAACCA, site 2218 (sense CGUGGAAAGGGACCAACCATT; antisense UGGUUGGUCCCUUUCCACGUU; sense: DNA at AGT, 2'-fluoro at CU, [invAb] at 5' end, 3' end, backbone not given here; antisense: sugars from the 5' end rrrffmmfffffffffmfmmm, backbone not given here) [STAT6 siNA duplex; target CGU…, site 2218]” are −11.1 ± 23.2% and −22.6 ± 6.6%.
The matching figures for “30004-DC: STAT6 siNA duplex; sense SEQ ID NO: 72, antisense SEQ ID NO: 73; target GCCUUCUUAUGACCUUGGA, site 2272 (sense GCCUUCUUAUGACCUUGGATT; antisense UCCAAGGUCAUAAGAAGGCUU; sense: DNA at AGT, 2'-fluoro at CU, [invAb] at 5' end, 3' end, backbone not given here; antisense: sugars from the 5' end rrrmmmmffmfmmmmmmmfmm, backbone not given here) [STAT6 siNA duplex; target GCCUUCUUAUGACCUUGGA, site 2272]”: 3.1 ± 19.6% and −12.8 ± 9.1%.
As to “30006-DC: STAT6 siNA duplex; sense SEQ ID NO: 76, antisense SEQ ID NO: 77; target CCACUAUCCUGUGGGACAA, site 1542 (sense CCACUAUCCUGUGGGACAATT; antisense UUGUCCCACAGGAUAGUGGUU; sense: DNA at AGT, 2'-fluoro at CU, [invAb] at 5' end, 3' end, backbone not given here; antisense: sugars from the 5' end rrrffffmfmmmmfmmfmmmm, backbone not given here) [STAT6 siNA duplex; target CCACUAUCCUGUGGGACAA, site 1542]”, the “% KD STAT6” value with STAT6 mRNA [1] is 72.9 ± 1.7%; in the data set with STAT6 mRNA [2], −27.4 ± 8.5%.
For the substance “30007-DC: STAT6 siNA duplex; sense SEQ ID NO: 78, antisense SEQ ID NO: 79; target GGAAGUUCAGGCUCUGAGA, site 3048 (sense GGAAGUUCAGGCUCUGAGATT; antisense UCUCAGAGCCUGAACUUCCUU; sense: sugars from the 5' end d5 f3 d3 f4 d6, [invAb] at 5' end, 3' end, backbone not given here; antisense: sugars from the 5' end rrrfmmmmfffmmmfffffmm, backbone not given here) [STAT6 siNA duplex; target GGAAGUUCAGGCUCUGAGA, site 3048]”, the “% KD STAT6” value is reported as 59.8 ± 8.6% with STAT6 mRNA [1] and 8.1 ± 0.8% with STAT6 mRNA [2].
With “30009-DC: STAT6 siNA duplex; sense SEQ ID NO: 82, antisense SEQ ID NO: 83; target GCUUUGCUCAGAUGUGACU, site 2538 (sense GCUUUGCUCAGAUGUGACUTT; antisense AGUCACAUCUGAGCAAAGCUU; sense: DNA at AGT, 2'-fluoro at CU, [invAb] at 5' end, 3' end, backbone not given here; antisense: sugars from the 5' end rrrfmfmfffmmmfmmmmfmm, backbone not given here) [STAT6 siNA duplex; target GCUUUGCUCAGAUGUGACU, site 2538]”, the “% KD STAT6” value in the data set on STAT6 mRNA [1] turned out to be 63.5 ± 4.6%; in the data set with STAT6 mRNA [2] it was 72.7 ± 5.4%.
“30010-DC: STAT6 siNA duplex; sense SEQ ID NO: 84, antisense SEQ ID NO: 85; target GGGACAAUGCCUUCUCUGA, site 1568 (sense GGGACAAUGCCUUCUCUGATT; antisense UCAGAGAAGGCAUUGUCCCUU; sense: sugars from the 5' end dddrfddfdffffffffdddd, [invAb] at 5' end, 3' end, backbone not given here; antisense: sugars from the 5' end rrrmmmmmmmfmffmffffmm, backbone not given here) [STAT6 siNA duplex; target GGGACAAUGCCUUCUCUGA, site 1568]”: the “% KD STAT6” value in the data set on STAT6 mRNA [1] was 6 ± 23.6%; in the data set on STAT6 mRNA [2] it was −26.2 ± 0.2%.
In the same order, the values of “30011-DC: STAT6 siNA duplex; sense SEQ ID NO: 86, antisense SEQ ID NO: 87; target CCGAGAAUCUCUGCAGCAA, site 726 (sense CCGAGAAUCUCUGCAGCAATT; antisense UUGCUGCAGAGAUUCUCGGUU; sense: DNA at AGT, 2'-fluoro at CU, [invAb] at 5' end, 3' end, backbone not given here; antisense: sugars from the 5' end rrrffmfmmmmmfffffmmmm, backbone not given here) [STAT6 siNA duplex; target CCGAGAAUCUCUGCAGCAA, site 726]” are 34.9 ± 11.5% and 53.4 ± 0.2%.
